Experiments:
[1] = cited from earlier work
[2] = pH study of dilute solutions of VertecBio solvents with neem oil containing azadirachtin; type: physicochemical; details: solvent mixed with 3% (w/w) neem oil
Protocol: The biosolvents were mixed with 3% (w/w) neem oil containing the natural pesticide azadirachtin. These were diluted in water at one, two, and three percent concentrations. The Citrus™ and Gold™ blends were made of 80% ethyl lactate and 20% d-limonene and methyl soyate, respectively, as described above. […] The initial pH of the water was 7.80 pH units.

[3] = pH study of dilute solutions of VertecBio solvents in water; type: physicochemical
Protocol: The Citrus and Gold blends were made of 80% Ethyl lactate and 20% d-limonene and methyl soyate respectively. The pH was measured at various intervals and was recorded.
(§1) The initial pH of the water was approximately 7.80 pH units.

[4] = pH study of dilute solutions of VertecBio solvents with dichlorvos; type: physicochemical; details: solvent containing 1% dichlorvos
Protocol: In this example, the pH of a dilute solution of an organophosphate pesticide is tracked over time. The dilution into water is done without any surfactants.
The biosolvents were diluted in water at one, two, and three percent concentrations. The solvents, before being diluted, contained 1% dichlorvos. The VertecBio Citrus™ and Gold™ blends were made of 80% ethyl lactate and 20% d-limonene and methyl soyate respectively.
as §1

CNC(=O)Oc1cccc2ccccc12 [Sevin, carbaryl]
½ Life at pH 7.0 [1]: 10 days
½ Life at pH 9.0 [1]: 24 hr

CCOC(=O)C(C)O (stereo not drawn) [Ethyl Lactate, ethyl lactate]
pH of dilute solution ([2]; 1% in water, 4 hours): 7.43
pH of dilute solution ([2]; 1% in water, 24 hours): 6.77
pH of dilute solution ([2]; 1% in water, 48 hours): 6.94
pH of dilute solution ([2]; 1% in water, 72 hours): 6.39
pH of dilute solution ([2]; 1% in water, Initial): 7.59
pH of dilute solution ([2]; 2% in water, 48 hours): 6.74
pH of dilute solution ([2]; 2% in water, 72 hours): 6.02
pH of dilute solution ([2]; 2% in water, Initial): 7.41
pH of dilute solution ([2]; 3% in water, 24 hours): 6.68
pH of dilute solution ([2]; 3% in water, 48 hours): 6.61
pH of dilute solution ([2]; 3% in water, 72 hours): 5.78
pH of dilute solution ([2]; 3% in water, Initial): 7.31
pH of dilute solution ([3]; 1% in water, 2 hours): 7.25
pH of dilute solution ([3]; 1% in water, 4 hours): 7.10
pH of dilute solution ([3]; 1% in water, 6 hours): 6.95
pH of dilute solution ([3]; 1% in water, 8 hours): 7.11
pH of dilute solution ([3]; 1% in water, 24 hours): 6.78
pH of dilute solution ([3]; 1% in water, 48 hours): 6.75
pH of dilute solution ([3]; 1% in water, 72 hours): 6.56
pH of dilute solution ([3]; 1% in water, Initial): 7.75
pH of dilute solution ([3]; 2% in water, 2 hours): 7.14
pH of dilute solution ([3]; 2% in water, 4 hours): 7.00
pH of dilute solution ([3]; 2% in water, 6 hours): 6.90
pH of dilute solution ([3]; 2% in water, 8 hours): 6.90
pH of dilute solution ([3]; 2% in water, 24 hours): 6.56
pH of dilute solution ([3]; 2% in water, 48 hours): 6.43
pH of dilute solution ([3]; 2% in water, 72 hours): 5.88
pH of dilute solution ([3]; 2% in water, Initial): 7.65
pH of dilute solution ([3]; 3% in water, 2 hours): 7.01
pH of dilute solution ([3]; 3% in water, 4 hours): 6.90
pH of dilute solution ([3]; 3% in water, 6 hours): 6.78
pH of dilute solution ([3]; 3% in water, 8 hours): 6.79
pH of dilute solution ([3]; 3% in water, 24 hours): 6.47
pH of dilute solution ([3]; 3% in water, 48 hours): 5.93
pH of dilute solution ([3]; 3% in water, 72 hours): 5.47
pH of dilute solution ([3]; 3% in water, Initial): 7.54
pH of dilute solution ([4]; 1% in water, 4 hours): 7.3
pH of dilute solution ([4]; 1% in water, 24 hours): 7.15
pH of dilute solution ([4]; 1% in water, 48 hours): 7.08
pH of dilute solution ([4]; 1% in water, 72 hours): 6.89
pH of dilute solution ([4]; 1% in water, Initial): 7.72
pH of dilute solution ([4]; 2% in water, 24 hours): 6.92
pH of dilute solution ([4]; 2% in water, 48 hours): 6.55
pH of dilute solution ([4]; 2% in water, 72 hours): 6.04
pH of dilute solution ([4]; 2% in water, Initial): 7.5
pH of dilute solution ([4]; 3% in water, 4 hours): 6.97
pH of dilute solution ([4]; 3% in water, 24 hours): 6.6
pH of dilute solution ([4]; 3% in water, 48 hours): 6.28
pH of dilute solution ([4]; 3% in water, 72 hours): 5.45
pH of dilute solution ([4]; 3% in water, Initial): 7.51

COP(=S)(OC)SCn1nnc2ccccc2c1=O [Guthion, azin-phos methyl]
½ Life at pH 5.0 [1]: 60 hr
½ Life at pH 9.0 [1]: 12 hr

O=C1C2CC=CCC2C(=O)N1SC(Cl)(Cl)Cl (stereo not drawn) [Captan, captan]
½ Life at pH 5.0 [1]: 10 hr
½ Life at pH 7.0 [1]: 3 hr
½ Life at pH 8.0 [1]: 10 min
½ Life at pH 9.0 [1]: 2 min

COP(=S)(OC)SCN1C(=O)c2ccccc2C1=O [Imidan, phosmet]
½ Life at pH 5.0 [1]: 7 days
½ Life at pH 7.0 [1]: 12 hr
½ Life at pH 8.0 [1]: 4 hr

CCOC(=O)CC(SP(=S)(OC)OC)C(=O)OCC (stereo not drawn) [Malathion, malathion]
½ Life at pH 6.0 [1]: 8 days
½ Life at pH 7.0 [1]: 3 days
½ Life at pH 8.0 [1]: 19 hr
½ Life at pH 9.0 [1]: 5 hr

CCCCNC(=O)n1c(NC(=O)OC)nc2ccccc21 [Benlate, benomyl]
½ Life at pH 5.0 [1]: 30 hr
½ Life at pH 7.0 [1]: 1 hr

CCOP(=S)(OCC)Oc1nc(Cl)c(Cl)cc1Cl [Dursban, chlorpyrofos]
½ Life at pH 5.0 [1]: 63 days
½ Life at pH 7.0 [1]: 35 days
½ Life at pH 8.0 [1]: 1.5 days

CNC(=O)CSP(=S)(OC)OC [Cygon, dimethoate]
½ Life at pH 6.0 [1]: 12 hr
½ Life at pH 9.0 [1]: 48 min

From patent US20060199736A1, “Environmentally benign bioactive formulation” (priority 2002, published 2006)
